In the NIST ThermoML archive (doi:10.1016/j.jct.2018.08.013):
Values joined by “and” are separate entries in the source; they are usually repeats but may differ in a detail not shown here. Identical values can stand only once.

What was measured:
[1] = specific heat capacity at constant pressure; xn = mol fraction of the nth substance listed; conditions: 100 kPa, Crystal of intercomponent compound 1, x2 = 0.451
[2] = xn = mol fraction of the nth substance listed; conditions: 298 K; 100 kPa; Crystal of intercomponent compound 1; X-ray diffraction; x2 = 0.451

[S] [sulfur] + [In]
[1]
Conditions | specific heat capacity
14.16 K, relaxation calorimetry | 10.46 J/K/kg
14.18 K, relaxation calorimetry | 10.51 J/K/kg
16.17 K, relaxation calorimetry | 15.52 J/K/kg
16.18 K, relaxation calorimetry | 15.54 J/K/kg
16.19 K, relaxation calorimetry | 15.59 J/K/kg
18.2 K, relaxation calorimetry | 21.32 J/K/kg and 21.36 J/K/kg
20.21 K, relaxation calorimetry | 27.47 J/K/kg and 27.51 J/K/kg
20.22 K, relaxation calorimetry | 27.57 J/K/kg
22.23 K, relaxation calorimetry | 33.81 J/K/kg and 33.8 J/K/kg
22.24 K, relaxation calorimetry | 33.85 J/K/kg
24.25 K, relaxation calorimetry | 40.26 J/K/kg and 40.2 J/K/kg
24.26 K, relaxation calorimetry | 40.28 J/K/kg
26.26 K, relaxation calorimetry | 46.66 J/K/kg and 46.68 J/K/kg
26.27 K, relaxation calorimetry | 46.58 J/K/kg
28.28 K, relaxation calorimetry | 52.75 J/K/kg and 52.77 J/K/kg and 52.81 J/K/kg
30.3 K, relaxation calorimetry | 58.62 J/K/kg and 58.63 J/K/kg
30.31 K, relaxation calorimetry | 58.71 J/K/kg
35.34 K, relaxation calorimetry | 72.92 J/K/kg
35.36 K, relaxation calorimetry | 72.92 J/K/kg
40.38 K, relaxation calorimetry | 85.85 J/K/kg
45.42 K, relaxation calorimetry | 97.7 J/K/kg
45.43 K, relaxation calorimetry | 97.63 J/K/kg
45.44 K, relaxation calorimetry | 97.63 J/K/kg
50.46 K, relaxation calorimetry | 109.27 J/K/kg and 109.41 J/K/kg
50.48 K, relaxation calorimetry | 109.27 J/K/kg
55.5 K, relaxation calorimetry | 120.03 J/K/kg and 120.1 J/K/kg
55.51 K, relaxation calorimetry | 120.17 J/K/kg
60.54 K, relaxation calorimetry | 130.38 J/K/kg and 130.24 J/K/kg
65.58 K, relaxation calorimetry | 140.8 J/K/kg and 140.86 J/K/kg
65.59 K, relaxation calorimetry | 140.8 J/K/kg
70.62 K, relaxation calorimetry | 151.01 J/K/kg and 151.08 J/K/kg
70.64 K, relaxation calorimetry | 150.94 J/K/kg
75.66 K, relaxation calorimetry | 160.88 J/K/kg and 160.47 J/K/kg and 160.68 J/K/kg
80.69 K, relaxation calorimetry | 170.82 J/K/kg and 170.68 J/K/kg and 170.62 J/K/kg
85.73 K, relaxation calorimetry | 180.22 J/K/kg and 180.15 J/K/kg and 179.74 J/K/kg
90.75 K, relaxation calorimetry | 189.47 J/K/kg
90.77 K, relaxation calorimetry | 189.13 J/K/kg and 188.59 J/K/kg
95.78 K, relaxation calorimetry | 197.58 J/K/kg
95.79 K, relaxation calorimetry | 197.17 J/K/kg and 197.1 J/K/kg
100.82 K, relaxation calorimetry | 204.93 J/K/kg
100.83 K, relaxation calorimetry | 204.59 J/K/kg
100.92 K, relaxation calorimetry | 204.18 J/K/kg
105.86 K, relaxation calorimetry | 212.83 J/K/kg
105.87 K, relaxation calorimetry | 213.24 J/K/kg and 212.76 J/K/kg
113.82 K, relaxation calorimetry | 223.18 J/K/kg and 223.24 J/K/kg and 222.9 J/K/kg
121.72 K, relaxation calorimetry | 233.18 J/K/kg
121.75 K, relaxation calorimetry | 233.18 J/K/kg
121.76 K, relaxation calorimetry | 233.12 J/K/kg
129.68 K, relaxation calorimetry | 241.97 J/K/kg
129.69 K, relaxation calorimetry | 242.31 J/K/kg and 241.97 J/K/kg
137.6 K, relaxation calorimetry | 249.86 J/K/kg
137.62 K, relaxation calorimetry | 250 J/K/kg
145.51 K, relaxation calorimetry | 257.22 J/K/kg
145.55 K, relaxation calorimetry | 257.15 J/K/kg and 256.88 J/K/kg
153.44 K, relaxation calorimetry | 264.09 J/K/kg
153.45 K, relaxation calorimetry | 264.23 J/K/kg
153.46 K, relaxation calorimetry | 264.03 J/K/kg
161.36 K, relaxation calorimetry | 269.88 J/K/kg
161.38 K, relaxation calorimetry | 270.02 J/K/kg
161.39 K, relaxation calorimetry | 270.08 J/K/kg
169.28 K, relaxation calorimetry | 275.6 J/K/kg
169.31 K, relaxation calorimetry | 275.74 J/K/kg
169.32 K, relaxation calorimetry | 275.46 J/K/kg
177.2 K, relaxation calorimetry | 280.36 J/K/kg
177.24 K, relaxation calorimetry | 280.23 J/K/kg and 280.3 J/K/kg
185.14 K, relaxation calorimetry | 284.52 J/K/kg
185.17 K, relaxation calorimetry | 284.79 J/K/kg and 284.86 J/K/kg
193.05 K, relaxation calorimetry | 288.4 J/K/kg
193.08 K, relaxation calorimetry | 288.74 J/K/kg
193.09 K, relaxation calorimetry | 289.08 J/K/kg
200.97 K, relaxation calorimetry | 292.69 J/K/kg
201 K, relaxation calorimetry | 292.89 J/K/kg
201.01 K, relaxation calorimetry | 293.03 J/K/kg
208.88 K, relaxation calorimetry | 296.02 J/K/kg
208.92 K, relaxation calorimetry | 295.96 J/K/kg and 296.16 J/K/kg
216.78 K, relaxation calorimetry | 299.56 J/K/kg
216.82 K, relaxation calorimetry | 299.7 J/K/kg
216.83 K, relaxation calorimetry | 299.7 J/K/kg
224.7 K, relaxation calorimetry | 302.56 J/K/kg
224.74 K, relaxation calorimetry | 303.1 J/K/kg
224.75 K, relaxation calorimetry | 302.7 J/K/kg
232.6 K, relaxation calorimetry | 305.01 J/K/kg
232.66 K, relaxation calorimetry | 305.01 J/K/kg and 305.22 J/K/kg
240.51 K, relaxation calorimetry | 306.71 J/K/kg
240.54 K, relaxation calorimetry | 307.67 J/K/kg and 307.53 J/K/kg
248.4 K, relaxation calorimetry | 309.84 J/K/kg
248.45 K, relaxation calorimetry | 310.12 J/K/kg
248.48 K, relaxation calorimetry | 308.89 J/K/kg
256.34 K, relaxation calorimetry | 310.59 J/K/kg
256.4 K, relaxation calorimetry | 310.73 J/K/kg and 310.66 J/K/kg
262.24 K, Extra sensitive DSC | 315.9 J/K/kg
264.24 K, relaxation calorimetry | 312.43 J/K/kg
264.3 K, relaxation calorimetry | 312.98 J/K/kg
264.31 K, relaxation calorimetry | 312.98 J/K/kg
265 K, Extra sensitive DSC | 316.72 J/K/kg
270 K, Extra sensitive DSC | 317.74 J/K/kg
275 K, Extra sensitive DSC | 319.31 J/K/kg
280 K, Extra sensitive DSC | 320.94 J/K/kg
285 K, Extra sensitive DSC | 322.44 J/K/kg
290 K, Extra sensitive DSC | 323.94 J/K/kg
295 K, Extra sensitive DSC | 325.44 J/K/kg
300 K, Extra sensitive DSC | 326.59 J/K/kg
305 K, Extra sensitive DSC | 328.02 J/K/kg
310 K, Extra sensitive DSC | 329.18 J/K/kg
315 K, Extra sensitive DSC | 329.93 J/K/kg
320 K, Extra sensitive DSC | 330.54 J/K/kg
325 K, Extra sensitive DSC | 331.29 J/K/kg
330 K, Extra sensitive DSC | 332.31 J/K/kg
335 K, Extra sensitive DSC | 333.13 J/K/kg
337.86 K, Extra sensitive DSC | 333.4 J/K/kg
340.38 K, Extra sensitive DSC | 332.92 J/K/kg
343.85 K, Extra sensitive DSC | 333.47 J/K/kg
345.58 K, Extra sensitive DSC | 333.74 J/K/kg
348.19 K, Extra sensitive DSC | 335.31 J/K/kg
350.79 K, Extra sensitive DSC | 335.51 J/K/kg
353.39 K, Extra sensitive DSC | 335.99 J/K/kg
355.13 K, Extra sensitive DSC | 336.53 J/K/kg
356 K, Extra sensitive DSC | 335.78 J/K/kg
358.6 K, Extra sensitive DSC | 336.4 J/K/kg

Conditions | mass density [kg/m3]
[2] | 5211
